# Experimental data from patent publication US11499963B2, “Induction of differentiation of induced pluripotent stem cells into intestinal epithelial cells” (PUBLIC UNIVERSITY CORPORATION NAGOYA CITY UNIVERSITY, priority 2016, dated 2022).
# How the values were obtained:
# CYP3A4 [1] = assay: Metabolic activity of midazolam (CYP3A4 metabolic activity) in differentiated intestinal epithelial cell-like cells; type: cell-based, human; details: VD3 10 nmol/L; cells induced to differentiate using 8-Br-cAMP and IBMX; midazolam 100 μmol/L
# Description: The metabolic activity was calculated from the amount of 1-hydroxymidazolam in the medium measured using a liquid chromatography-mass spectrometer (LC-MS/MS). After completion of the experiment on metabolism, protein quantification was carried out, and the metabolic activity was corrected by the amount of protein.
# CYP3A4 [2] = test system: CYP3A4
# ALK4 = molecular target: T1, ALK4 (Homo sapiens, UniProt P36896); details: cited from earlier work
# T1 sequence (P36896 24-505): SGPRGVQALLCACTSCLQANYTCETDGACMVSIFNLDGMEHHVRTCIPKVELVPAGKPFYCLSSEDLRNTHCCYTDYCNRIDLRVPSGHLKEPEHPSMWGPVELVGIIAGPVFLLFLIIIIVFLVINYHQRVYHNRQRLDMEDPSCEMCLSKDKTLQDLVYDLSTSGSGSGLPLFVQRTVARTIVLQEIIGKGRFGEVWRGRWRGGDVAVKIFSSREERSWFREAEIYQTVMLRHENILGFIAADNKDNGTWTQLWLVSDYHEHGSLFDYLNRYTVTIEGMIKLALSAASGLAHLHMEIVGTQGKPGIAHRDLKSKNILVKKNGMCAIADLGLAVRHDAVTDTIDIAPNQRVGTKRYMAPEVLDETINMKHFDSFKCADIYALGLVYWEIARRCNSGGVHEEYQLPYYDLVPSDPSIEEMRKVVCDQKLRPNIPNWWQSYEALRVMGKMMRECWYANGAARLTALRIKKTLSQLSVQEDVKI
# ALK5 = molecular target: T2, ALK5 (Homo sapiens, UniProt P36897); details: cited from earlier work
# T2 sequence (P36897 34-503): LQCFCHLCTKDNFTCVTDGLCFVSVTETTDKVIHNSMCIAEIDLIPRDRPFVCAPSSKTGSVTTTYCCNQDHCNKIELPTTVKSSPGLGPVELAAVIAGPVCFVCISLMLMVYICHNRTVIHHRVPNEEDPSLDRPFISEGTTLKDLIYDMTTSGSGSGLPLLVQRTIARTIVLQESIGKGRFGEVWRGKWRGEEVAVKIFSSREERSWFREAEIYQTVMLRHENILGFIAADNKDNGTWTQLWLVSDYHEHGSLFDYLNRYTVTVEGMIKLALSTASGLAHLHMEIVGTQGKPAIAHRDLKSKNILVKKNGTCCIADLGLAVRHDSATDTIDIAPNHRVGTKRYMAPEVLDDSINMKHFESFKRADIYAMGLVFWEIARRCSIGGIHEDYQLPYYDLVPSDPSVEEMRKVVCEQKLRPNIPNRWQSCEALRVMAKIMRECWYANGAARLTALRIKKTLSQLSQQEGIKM
# ALK7 = molecular target: T3, ALK7 (Homo sapiens, UniProt Q8NER5); details: cited from earlier work
# T3 sequence (Q8NER5 21-493): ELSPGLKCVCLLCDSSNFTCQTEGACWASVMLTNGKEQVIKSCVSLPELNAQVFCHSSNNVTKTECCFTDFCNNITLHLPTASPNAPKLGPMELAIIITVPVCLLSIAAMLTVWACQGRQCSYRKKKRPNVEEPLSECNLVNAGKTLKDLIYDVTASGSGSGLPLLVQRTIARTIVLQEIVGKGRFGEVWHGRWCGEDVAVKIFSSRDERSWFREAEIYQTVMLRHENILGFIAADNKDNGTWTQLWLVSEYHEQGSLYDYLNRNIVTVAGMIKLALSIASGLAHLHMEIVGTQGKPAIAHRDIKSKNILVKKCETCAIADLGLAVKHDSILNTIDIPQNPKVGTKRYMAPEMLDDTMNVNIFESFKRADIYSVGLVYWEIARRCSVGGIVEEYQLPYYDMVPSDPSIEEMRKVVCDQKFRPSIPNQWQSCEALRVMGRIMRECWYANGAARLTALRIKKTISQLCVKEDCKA
# OATP = assay: Uptake of estrone-3-sulfate (ES) (OATP transport activity); type: cell-based, human; details: BSP 0.2 mmol/L; cells induced to differentiate using 8-Br-cAMP and IBMX
# Description: (§1) After completion of induction of differentiation, incubation was performed at 37° C. or 4° C. with an uptake solution containing tritium-labeled Gly-Sar or ES. In the Gly-Sar uptake experiment, there was used an uptake solution containing 137 mmol/L sodium chloride, 5.4 mmol/L potassium chloride, 0.81 mmol/L magnesium sulfate, 0.44 mmol/L potassium dihydrogen phosphate, 0.34 mmol/L disodium hydrogen phosphate, 1.3 mmol/L calcium chloride, 4.2 mmol/L sodium hydrogen carbonate, 5.6 mmol/L D-glucose and 10 mmol/L MES and having a pH of 6.0. In the ES uptake experiment, there was used an uptake solution containing 137 mmol/L sodium chloride, 5.4 mmol/L potassium chloride, 0.81 mmol/L magnesium sulfate, 0.44 mmol/L potassium dihydrogen phosphate, 0.34 mmol/L disodium hydrogen phosphate, 1.3 mmol/L calcium chloride, 4.2 mmol/L sodium hydrogen carbonate, 5.6 mmol/L D-glucose, and 10 mmol/L HEPES and having a pH of 7.4. After completion of incubation, uptake was stopped by washing the cells with the ice-cold uptake solution. Thereafter, the cells were solubilized with a 0.2 M sodium hydroxide solution containing 0.5% sodium dodecyl sulfate (SDS), and a scintillation solution was added. The intracellular uptake of Gly-Sar or ES was calculated from the radioactivity measured using a liquid scintillation counter.
# PEPT1 = molecular target: T4, PEPT1 (Homo sapiens, UniProt P46059); assay: Uptake of glycylsarcosine (Gly-Sar) (PEPT1 transport activity); type: cell-based; details: ibuprofen 3 mmol/L
# T4 construct: uptake of glycylsarcosine (Gly-Sar) in the differentiated intestinal epithelial cell-like cells (PEPT1 transport activity); endogenous in cells; host or cells: human iPS cell (iPS-51: Windy)-derived intestinal epithelial cell-like cells
# T4 sequence (P46059 1-708): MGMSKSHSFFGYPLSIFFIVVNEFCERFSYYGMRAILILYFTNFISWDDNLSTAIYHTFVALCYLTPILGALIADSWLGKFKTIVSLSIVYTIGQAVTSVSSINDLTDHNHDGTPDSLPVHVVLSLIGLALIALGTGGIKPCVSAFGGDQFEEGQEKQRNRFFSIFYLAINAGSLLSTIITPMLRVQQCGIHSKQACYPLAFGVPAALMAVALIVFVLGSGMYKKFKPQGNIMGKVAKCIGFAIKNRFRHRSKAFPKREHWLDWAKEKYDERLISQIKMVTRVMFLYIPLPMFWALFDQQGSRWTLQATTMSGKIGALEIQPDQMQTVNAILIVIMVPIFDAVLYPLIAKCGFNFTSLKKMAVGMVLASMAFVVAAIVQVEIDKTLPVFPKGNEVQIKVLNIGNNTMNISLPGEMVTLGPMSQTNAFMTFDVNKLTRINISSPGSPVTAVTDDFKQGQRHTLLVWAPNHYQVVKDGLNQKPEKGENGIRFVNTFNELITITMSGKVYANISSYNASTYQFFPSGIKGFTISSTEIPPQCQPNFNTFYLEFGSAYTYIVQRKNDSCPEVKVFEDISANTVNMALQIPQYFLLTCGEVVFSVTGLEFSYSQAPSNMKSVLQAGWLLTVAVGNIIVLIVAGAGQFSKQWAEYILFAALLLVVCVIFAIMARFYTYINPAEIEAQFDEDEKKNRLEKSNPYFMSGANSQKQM
# Description: as §1
# mucin 2 = assay: Expression (mRNA level) of mucin 2 in iPS cell-derived intestinal epithelial cell-like cells; details: for expression (mRNA level) of mucin 2 (mucosa protecting action): added for 6 days, irsogladine 10, 40 μM, rebamipide 50, 100, 250, 1000 μM, vs control
smiles,measurement,setting,value
"C=C1/C(=C\C=C2/CCC[C@]3(C)[C@@H]([C@H](C)CCCC(C)(C)O)CC[C@@H]23)C[C@@H](O)C[C@@H]1O [1α,25-dihydroxyvitamin D3]",activity of CYP3A4 (1-hydroxymidazolam formation) upon inducer treatment,CYP3A4 [1],significantly increased
same,induction of CYP3A4 expression,CYP3A4 [2],observed
Cc1cccc(-c2nn(C(=S)Nc3ccccc3)cc2-c2ccnc3ccccc23)n1 [A-83-01],inhibitory activity against TGF-β receptor ALK4,ALK4,shows inhibitory activity
same,inhibitory activity against TGF-β receptor ALK5,ALK5,shows inhibitory activity
same,inhibitory activity against TGF-β receptor ALK7,ALK7,shows inhibitory activity
"O=C1OC(c2ccc(O)c(S(=O)(=O)O)c2)(c2ccc(O)c(S(=O)(=O)O)c2)c2c(Br)c(Br)c(Br)c(Br)c21 [BSP, bromsulphthalein]",uptake of ES in the presence of inhibitor,OATP,significantly reduced
CC(C)Cc1ccc(C(C)C(=O)O)cc1 (centres unmarked) [ibuprofen],Gly-Sar uptake in the presence of inhibitor,PEPT1; cells by the conventional differentiation method,significantly reduced
same,Gly-Sar uptake in the presence of inhibitor,PEPT1; cells induced to differentiate using 8-Br-cAMP and IBMX,significantly reduced
Nc1nc(N)nc(-c2cc(Cl)ccc2Cl)n1 [irsogladine],expression (mRNA level) of mucin 2 (mucosa protecting action),mucin 2,increased
CC(C(=O)O)c1cccc(C(=O)c2ccccc2)c1 (centres unmarked) [ketoprofen],expression (mRNA level) of mucin 2 (mucosa damaging action),"mucin 2; ketoprofen 200 μM for 6 days, excepted from the decrease seen with NSAIDs",except for ketoprofen-200
O=C(NC(Cc1cc(=O)[nH]c2ccccc12)C(=O)O)c1ccc(Cl)cc1 (centres unmarked) [rebamipide],expression (mRNA level) of mucin 2 (mucosa protecting action),mucin 2,increased
